Key:
[1] = test system: primary cardiac cells from neonatal mice after H2O2 treatment; assay: SOD in H2O2-injured primary cardiac cells (WST-1 assay); type: cell-based
Protocol: Dismutation of superoxide anion can be catalyzed by superoxide dismutase (SOD) to give hydrogen peroxide and oxygen. SOD is a kind of important antioxidases in organisms. SOD plays a vital role in the equilibrium between oxidation and anti-oxidation in organisms. SOD is able to scavenge superoxide anion free radicals and protect cells from injuries. In this test, the SOD activity was determined using WST-1 assay.
(§1) After disinfecting the neonatal mice (within 3 days after birth) by alcohol, the skin and sternum of the left chest were cut off at one time using a scissor. The heart was then squeezed out, taken and put into a pre-cooled FBS-free DMEM culture medium with a curved forceps. The blood vessels on the surface of heart, the residual blood and the attached lung tissue were removed. The heart tissue was cut into pieces with homogeneous size. The heart pieces were drawn into a 15 ml centrifuge tube, and the supernatant was discarded. The tissue was rinsed by PBS for 2-3 times. The trypsinization solution was added at equivalent volume of the heart tissue. The centrifuge tube was kept shaken to accelerate digestion. After the solution become turbid, the digestion was stopped by transferring the solution to DMEM culture medium. After the digestion of all heart tissues was completed, the digest was filtered by a sieve, and centrifuged at 1500 rpm for 5 min. […]
(§2) After digestion, the primary cardiac cells from neonatal mice were re-suspended into a 6-well plate at a appropriate concentration with volume of 2 mL for each well. […] The activity of SOD and the content of ATP in the cells were determined according to the instruction provided in the SOD and ATP detection kit, respectively. […]
(§3) The experiment data were expressed as mean±standard error. The SOD and ATP content in the cells in each group were analyzed by One-way ANOVA, with P<0.05 indicating a significant difference. All experiment results were statistically analyzed and plotted using Graphpad Prism 8.0.

[2] = test system: primary cardiac cells from neonatal mice; assay: Cytotoxicity test, CCK-8 assay; type: cell-based; conditions: 24 hours
Source text: The toxicity of the novel compound, brominated 9-O-propyl berberine thiazole formate, on the primary cardiac cells from neonatal mice was detected using CCK-8 assay. The CCK-8 agent contains WST-8, which has the chemical name: 2-(2-methoxy-4-nitrophenyl)-3-(4-nitrophenyl)-5-(2,4-disulfophenyl)-2H-tetrazolium sodium salt. It can be reduced to yellow formazan with high water solubility by the dehydrogenase existing in the mitochondrion in a cell in the presence of electron carrier 1-methoxy-5-methylphenazinium methyl sulfate (1-Methoxy PMS). The amount of formazan generated is proportional to the number of live cells. The absorbance is detected at a wavelength of 450 nm by an enzyme-linked immunosorbent assay, which represents the number of live cells, in which a larger value indicates a higher cell activity. […]
After digestion, the primary cardiac cells from neonatal mice were re-suspended into a 96-well plate at a appropriate concentration with volume of 100 μl for each well. […] After incubation at 37° C. for 1-4 hours, the mixture was placed in a micro-plate reader and shaken for 10 s. The absorbance at 450 nm (OD450) was recorded.
The relative inhibition rate of the compound at various concentrations on the primary cardiac cells from neonatal mice was calculated based on the equation: cell inhibition rate (%)=(1−OD450 of the sample group/OD450 of the control group)*100. […]

[3] = test system: myocardial infarcted mice; assay: Mouse model of myocardial infarction (ligation of the left anterior descending coronary artery), cardiac function by ultrasonography; type: in vivo, C57BL/6 male mice; conditions: 2 weeks
Source text: The mouse model of myocardial infarction was established by ligation of the left anterior descending branch of the coronary artery. The agent was then administrated to the mice to determine the effect of the test sample on myocardial ischemia, and the effect of the test sample on the cardiac functions of the myocardial infarct mice.
Random grouping: the C57BL/6 mice were randomly divided into 5 groups, namely the sham-operation group, the myocardial infarction group, the berberine group (berberine at a dosage of 40 mg/kg·d^−1), the test compound group (brominated 9-O-propyl berberine thiazole formate at a dosage of 40 mg/kg·d^−1) and the positive control group (sacubitril and valsartan sodium at a dosage of 26 mg/kg·d^−1).
The mouse model of myocardial ischemia was established by ligation of the left anterior descending branch of the coronary artery. Healthy male C57BL/6 mice (28±2 g) were anesthetized by intraperitoneal injection of aphrodin (0.2 g/kg). The anesthetic mice were placed in a supine position on the operation desk with the trachea connected to a ventilator by inserting a tracheal tube. An incision of about 0.5˜4.0 cm was made on the skin of the left chest from the upper left to the lower right. Pectoralis minor and serratus anterior were separated. The intercostal muscle was bluntly separated between the fourth and fifth rib, and the heart was slightly squeezed out.
Except for the sham-operation group, coronary artery ligation was performed to all other mice. The mice were randomly divided into 4 groups 24 hours after ligation, including the myocardial infarction group, the berberine group, the brominated 9-O-propyl berberine thiazole formate group and the positive control group. Blank solvent, berberine, brominated 9-O-propyl berberine thiazole formate and positive control sacubitril and valsartan sodium were administrated to the mice by gavage (as shown in Table 1) for consecutive 14 days. […]
The Experiment data were expressed as mean±standard error. […] All experiment results were statistically analyzed by Graphpad Prism 8.0.

[4] = test system: primary cardiac cells from neonatal mice after H2O2 treatment; assay: ATP in H2O2-injured primary cardiac cells (luciferase kit); type: cell-based
Source text: A kit has been used in this study, based on that ATP is demanded to provide energy during the fluorescence production by the fluorescein catalyzed by the firefly luciferase (also termed as luciferase). When both luciferase and fluorescein are excessive, in a certain concentration range, the fluorescence generated is proportional to the concentration of ATP. That is, the concentration of ATP in the solution can be detected sensitively.
as §1, §2, §3

[5] = vs. the model group, among 1, 2.5 and 5 μM, H2O2 100 μM
[6] = 40 mg/kg gavage once per day, ##P<0.01

Which “SOD content vs. the model group” value ([1]; 1, 2.5 and 5 μM, H2O2 100 μM, 24 hours, #P<0.05, ###P<0.001) does the source give for `COc1ccc2cc3[n+](cc2c1OCCCOC(=O)c1cscn1)CCc1cc2c(cc1-3)OCO2.[Br-]` [9-(3-((thiazole-4-carbonyl)oxy)propoxy)-10-methoxy-5,6-dihydro-[1,3]dioxolo[4,5-g]isoquinolino[3,2-a]isoquinolin-7-ium bromide] here?
The value was “increased”.

What about the “SOD effect compared with berberine” value ([1]; same concentration (5 μM), &P<0.05) of the same compound?
Its value is “apparently better than the effect of berberine at the same concentration”.

What about the “highest enhancement of the SOD content” value [1, 5] of the same compound?
The value was 43.4%.

And the inhibition at 1000 µM ([2]; Mus musculus, 1000 μM, CCK-8, OD450, read-out: cell inhibition rate)?
The inhibition at 1000 µM was 41%.

And the “toxicity on primary cardiac cells” value ([2]; concentration range tested 0.1-1000 μM)?
Its value is “low toxicity”.

What about the “ejection fraction (EF) vs. the myocardial infarction group” value [3, 6] of the same compound?
The value was “significantly increased”.

What about the “fraction shortening (FS) vs. the myocardial infarction group” value [3, 6] of the same compound?
The value was “significantly increased”.

What about the “effect on EF and FS compared with berberine” value ([3]; both 40 mg/kg gavage, &P<0.05 vs. the berberine group) of the same compound?
The value was “better than that of the berberine”.

And the “ATP content vs. the model group” value ([4]; 1, 2.5 and 5 μM, H2O2 100 μM, 24 hours, ##P<0.01, ###P<0.001)?
The value was “increased”.

And the “ATP effect compared with berberine” value ([4]; same concentration (5 μM), &&P<0.01)?
The value was “apparently better than the effect of berberine at the same concentration”.

What about the “highest enhancement of the ATP content” value [4, 5] of the same compound?
The value was 59.1%.

Reference: patent US12195477B2, “Derivative of berberine, and the preparation method and application thereof” (priority 2021, dated 2025)
